Results: paper PMC3598705, “Evaluation of Toxicity and Biodegradability of Cholinium Amino Acids Ionic Liquids” (PLoS ONE, 2013)
Like-named read-outs stand apart in the source and are kept apart here.

Tests used:
[1] = system: S. aureus ATCC 29213; test: Antimicrobial activity, tube dilution method; type: cell-based, Staphylococcus aureus; conditions: four repeated experiments
Procedure: (§1) Antimicrobial activity was measured via the tube dilution method as described previously. Briefly, E. coli, S. aureus, S. enteritidis and L. monocytogenes were cultured in Mueller-Hinton broth for 24 h at 37 °C. A microorganism suspension of 10^6 cfu mL^−1 (cfu, colony forming units) was prepared from each culture. IL solutions (31.3–1500 mM) were prepared with sterilized Mueller-Hinton broth, and then were sterilized by filtration (0.45 µm pore-diameter membrane). The various permutations of microorganism suspension (50 µL) and IL solution (50 µL) were mixed in 96-well microtiter plate. Growth of the microorganisms was determined visually after incubation for 24 h at 37 °C. Controls were conducted under the same conditions: negative controls without microorganisms and positive controls without ILs. The lowest concentration at which there was no visible growth (turbidity) was taken as the minimal inhibitory concentration (MIC). Samples of 20 µL from each well were spread onto Mueller-Hinton agar medium with inactivates (0.3% lecithin, 3% polysorbate 80 and 0.1% L-cysteine) and incubated for 48 h at 37 °C. The lowest concentration of the IL that killed 99.9% or more of the test bacterium was taken as the minimum biocidal concentration (MBC).

[2] = system: E. coli ATCC 8739; test: Antimicrobial activity, tube dilution method; type: cell-based, Escherichia coli; conditions: four repeated experiments
Procedure: as §1

[3] = system: S. enteritidis ATCC 14128; test: Antimicrobial activity, tube dilution method; type: cell-based, Salmonella enteritidis; conditions: four repeated experiments; for MIC: 24 h at 37 °C; for MBC: kills 99.9% or more
Procedure: as §1

[4] = system: L. monocytogenes ATCC 19115; test: Antimicrobial activity, tube dilution method; type: cell-based, Listeria monocytogenes; conditions: four repeated experiments
Procedure: as §1

[5] = target: T1, AChE type VI-S (from the electric eel) (Electrophorus electricus, UniProt O42275); test: AChE inhibition assay (colorimetric, DTNB reduction); type: biochemical; conditions: DTNB 0.5 mM, AChE 0.05 U mL^−1, acetylthiocholine iodide 0.5 mM, 37 °C, phosphate buffer pH 8.0; mean ± SD; read-out: EC50±SD (toxicity toward AChE)
T1 construct: purchased Sigma–Aldrich, USA type VI-S (catalogue number not given)
Procedure: A colorimetric assay based on reduction of DTNB was used to measure AChE inhibition as described previously, [24], in the presence of a phosphate buffer system in order to eliminate the effects of pH changes on enzyme activity. Briefly, IL solutions were prepared with 0.2 M phosphate buffer (pH 8.0) in 96-well microtiter plates. The enzyme (0.2 U mL^−1, plus 0.25 mg mL^−1 bovine serum albumin in the same phosphate buffer), and DTNB (2 mM, plus 0.185 mg mL^−1 NaHCO3 in the same phosphate buffer) were added to each well and kept at 37 °C for 5 min, and then the reaction was initiated by adding acetylthiocholine iodide (2 mM in the same phosphate buffer). In the experimental reactions, the final concentrations of DTNB, acetylthiocholine iodide and AChE were 0.5 mM, 0.5 mM and 0.05 U mL^−1, respectively. Except where stated otherwise, the concentration range used to calculate EC50 of the [Ch][AA] ILs was 0–50 mM. However, for strongly alkaline [Ch][AA] ILs such as [Ch][Lys], the maximum concentration used was 20 mM in order to avoid changes in enzyme activity due to pH changes that would be caused if the IL exceeded the buffering capacity of the phosphate buffer. Acidic amino acid-derived ILs ([Ch][Asp] and [Ch][Glu]) were used up to 80 mM. The control compounds cholinium chloride ([Ch][Cl]), [Bmim][BF4] and acetone were used at concentration ranges of 0–80 mM, 0–50 mM and 10 mM–2.5 M, respectively. Control experiments without enzyme were carried out under otherwise identical conditions. Reduction of DTNB was monitored at 405 nm and at 10 second intervals in a microplate reader (Wallac 1420 VICTOR3, PerkinElmer, Singapore) over a period of 5 min. Enzyme activity was expressed as ΔOD min^−1 obtained via linear regression analysis. All assays were performed at least in triplicate.
All data were analyzed by One-Way analysis of variance using SPSS 11.5 (SPSS Inc., USA). EC50 values are presented as mean ± standard deviation (SD) from at least three repeats, and confidence intervals (α = 0.05) of EC50 are also presented. The One-Way ANOVA was used to judge if the difference between the different ILs groups was significant. When the p value was<0.05, the difference was considered to be significant.

T1 sequence (O42275 24-633): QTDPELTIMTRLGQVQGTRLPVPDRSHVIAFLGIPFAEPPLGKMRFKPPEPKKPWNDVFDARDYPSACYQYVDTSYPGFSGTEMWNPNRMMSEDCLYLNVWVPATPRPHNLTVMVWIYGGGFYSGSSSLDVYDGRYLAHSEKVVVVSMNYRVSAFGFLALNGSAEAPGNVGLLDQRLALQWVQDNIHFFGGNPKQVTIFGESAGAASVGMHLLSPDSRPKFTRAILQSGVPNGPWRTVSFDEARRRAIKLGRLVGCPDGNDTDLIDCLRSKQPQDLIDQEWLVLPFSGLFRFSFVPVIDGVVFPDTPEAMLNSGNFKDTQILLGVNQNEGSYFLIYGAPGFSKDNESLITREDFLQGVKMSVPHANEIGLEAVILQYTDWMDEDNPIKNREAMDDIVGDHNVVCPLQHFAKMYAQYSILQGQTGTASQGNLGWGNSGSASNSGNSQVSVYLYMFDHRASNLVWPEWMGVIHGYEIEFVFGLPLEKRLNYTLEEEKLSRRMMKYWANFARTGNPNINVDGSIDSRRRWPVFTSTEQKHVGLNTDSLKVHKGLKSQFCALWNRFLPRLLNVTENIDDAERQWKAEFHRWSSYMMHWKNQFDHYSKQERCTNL

Row | SMILES | MIC ([1]; 24 h at 37 °C) | MBC ([1]; kills 99.9% or more) | MIC ([2]; 24 h at 37 °C) | MBC ([2]; kills 99.9% or more) | MIC [3] | MBC [3] | MIC ([4]; 24 h at 37 °C) | MBC ([4]; kills 99.9% or more) | EC50 [5] | MIC ([1]; Staphylococcus aureus, ATCC29213, 24 h at 37 °C, read-out: MIC) | MBC ([1]; Staphylococcus aureus, ATCC29213, kills 99.9% or more, read-out: MBC) | MIC ([2]; Escherichia coli, ATCC8739, 24 h at 37 °C, read-out: MIC) | MBC ([2]; Escherichia coli, ATCC8739, kills 99.9% or more, read-out: MBC) | MIC ([3]; Salmonella enterica, read-out: MIC) | MBC ([3]; Salmonella enterica, read-out: MBC) | MIC ([4]; Listeria monocytogenes, ATCC19115, 24 h at 37 °C, read-out: MIC) | MBC ([4]; Listeria monocytogenes, ATCC19115, kills 99.9% or more, read-out: MBC)
1 | C[N+](C)(C)CCO.NC(=O)CC[C@H](N)C(=O)[O-] [[Ch][Gln]] | 125 mM | 188 mM | 125 mM | 188 mM | 93.8 mM | 125 mM | 188 mM | 250 mM | – | – | – | – | – | – | – | – | –
2 | C[N+](C)(C)CCO.N[C@@H](Cc1ccccc1)C(=O)[O-] [[Ch][Phe]] | 62.5 mM | 93.8 mM | 31.3 mM | 46.9 mM | 31.3 mM | 46.9 mM | 46.9 mM | 62.5 mM | 2.74 ± 0.1 mM | – | – | – | – | – | – | – | –
3 | CCCCn1cc[n+](C)c1 [[Bmim][BF4], 1-Butyl-3-methylimidazolium tetrafluoroborate, reference compound] | – | – | – | – | – | – | – | – | 0.33 ± 0.01 mM | 2.3 mM | 4.6 mM | 2.3 mM | 4.6 mM | 2.3 mM | 2.3 mM | 2.3 mM | 4.6 mM
4 | C[N+](C)(C)CCO.N[C@@H](CCC(=O)O)C(=O)[O-] [[Ch][Glu]] | 750 mM | 750 mM | 500 mM | 750 mM | 125 mM | 188 mM | 500 mM | 750 mM | 3.72 ± 0.07 mM | – | – | – | – | – | – | – | –
5 | C[N+](C)(C)CCO.N[C@@H](Cc1c[nH]c2ccccc12)C(=O)[O-] [[Ch][Trp]] | 46.9 mM | 62.5 mM | 23.4 mM | 31.3 mM | 23.4 mM | 31.3 mM | 31.3 mM | 46.9 mM | 2.45 ± 0.02 mM | – | – | – | – | – | – | – | –
6 | O=C(O)[C@@H]1CCCN1 [[Ch][Pro]] | – | – | – | – | – | – | – | – | 3.37 ± 0.16 mM | – | – | – | – | – | – | – | –
7 | C[N+](C)(C)CCO.NCC(=O)[O-] [[Ch][Gly]] | 250 mM | 500 mM | 125 mM | 250 mM | 93.8 mM | 125 mM | 250 mM | 500 mM | – | – | – | – | – | – | – | – | –
8 | C[C@H](N)C(=O)O [[Ch][Ala]] | – | – | – | – | – | – | – | – | 3.33 ± 0.1 mM | – | – | – | – | – | – | – | –
9 | C[N+](C)(C)CCO.N[C@@H](CO)C(=O)[O-] [[Ch][Ser]] | 125 mM | 250 mM | 31.3 mM | 62.5 mM | 46.9 mM | 62.5 mM | 93.8 mM | 125 mM | – | – | – | – | – | – | – | – | –
10 | C[N+](C)(C)CCO.NC(=O)C[C@H](N)C(=O)[O-] [[Ch][Asn]] | 188 mM | 250 mM | 93.8 mM | 125 mM | 93.8 mM | 125 mM | 250 mM | 250 mM | – | – | – | – | – | – | – | – | –
11 | C[N+](C)(C)CCO.N[C@@H](Cc1cnc[nH]1)C(=O)[O-] [[Ch][His]] | 93.8 mM | 125 mM | 46.9 mM | 62.5 mM | 46.9 mM | 62.5 mM | 93.8 mM | 125 mM | – | – | – | – | – | – | – | – | –
12 | NC(=O)C[C@H](N)C(=O)O [[Ch][Asn]] | – | – | – | – | – | – | – | – | 3.94 ± 0.05 mM | – | – | – | – | – | – | – | –
13 | N[C@@H](Cc1cnc[nH]1)C(=O)O [[Ch][His]] | – | – | – | – | – | – | – | – | 3.63 ± 0.04 mM | – | – | – | – | – | – | – | –
